# Measurements published in US20260206754A1, “HETEROARYL COMPOUNDS FOR THE CONTROL OF INVERTEBRATE PESTS” (priority 2022, published 2026).
# Like-named read-outs stand apart in the source and are kept apart here.
# Tests used:
# Format in all cases: in vivo
# [1] = test system: tobacco budworm (Heliothis virescens); assay: B.1 Tobacco budworm, 96-well microtiter plate diet test with eggs; details: for mortality at 2500 ppm: 120 h, egg and larval mortality after 5 days, read-out: mortality in comparison with untreated controls
# Experimental: (§1) If not otherwise specified, the test solutions were prepared as follow: The active compound was dissolved at the desired concentration in a mixture of 1:1 (vol:vol) distilled water:acetone. The test solution was prepared on the day of use.
# B.1 Tobacco Budworm (Heliothis virescens)
# For evaluating control of tobacco budworm (Heliothis virescens) the test unit consisted of 96-well-microtiter plates containing an insect diet and 15-25 H. virescens eggs.
# The compounds were formulated using a solution containing 75% v/v water and 25% v/v DMSO. Different concentrations of formulated compounds were sprayed onto the insect diet at 10 μl, using a custom-built micro atomizer, at two replications.
# After application, microtiter plates were incubated at about 28±1° C. and about 80±5% relative humidity for 5 days. Egg and larval mortality was then visually assessed.
# [2] = test system: yellow fever mosquito (Aedes aegypti); assay: whole plant or invertebrate; details: for mortality at 2500 ppm: 48 h, larval mortality after 2 days, read-out: mortality in comparison with untreated controls; for mortality at 90 ppm: comparative experiment C.4, read-out: B.5, 90 ppm (mortality)
# Experimental: as §1
# B.5 Yellow Fever Mosquito (Aedes aegypti)
# For evaluating control of yellow fever mosquito (Aedes aegypti) the test unit consisted of 96-well-microtiter plates containing 200 μl of tap water per well and 5-15 freshly hatched A. aegypti larvae.
# The active compounds were formulated using a solution containing 75% (v/v) water and 25% (v/v) DMSO. Different concentrations of formulated compounds or mixtures were sprayed onto the insect diet at 2.5 μl, using a custom-built micro atomizer, at two replications.
# After application, microtiter plates were incubated at 281° C., 80±5% RH for 2 days. Larval mortality was then visually assessed.
# [3] = test system: boll weevil (Anthonomus grandis); assay: B.2 Boll weevil, 96-well microtiter plate diet test with eggs; details: Anthonomus grandis; for mortality at 2500 ppm: 120 h, egg and larval mortality after 5 days, read-out: mortality in comparison with untreated controls
# Experimental: as §1
# B.2 Boll Weevil (Anthonomus grandis)
# For evaluating control of boll weevil (Anthonomus grandis) the test unit consisted of 96-well-microtiter plates containing an insect diet and 5-10 A. grandis eggs.
# The compounds were formulated using a solution containing 75% v/v water and 25% v/v DMSO. Different concentrations of formulated compounds were sprayed onto the insect diet at 5 μl, using a custom-built micro atomizer, at two replications.
# After application, microtiter plates were incubated at about 25±1° C. and about 75±5% relative humidity for 5 days. Egg and larval mortality was then visually assessed.
# [4] = test system: green peach aphid (Myzus persicae); assay: B.6 Green peach aphid, systemic test with artificial diet under membrane
# Experimental: as §1
# B.6 Green Peach Aphid (Myzus persicae)
# For evaluating control of green peach aphid (Myzus persicae) through systemic means, the test unit consisted of 96-well-microtiter plates containing liquid artificial diet under an artificial membrane.
# The compounds were formulated using a solution containing 75% v/v water and 25% v/v DMSO. Different concentrations of formulated compounds were pipetted into the aphid diet, using a custom built pipetter, at two replications.
# After application, 5-8 adult aphids were placed on the artificial membrane inside the microtiter plate wells. The aphids were then allowed to suck on the treated aphid diet and incubated at about 23±1° C. and about 50±5% relative humidity for 3 days. Aphid mortality and fecundity was then visually assessed.
# [5] = test system: Southern armyworm (Spodoptera eridania), 2nd instar larvae; assay: B.3 Southern armyworm, 2nd instar larvae, foliar spray on lima bean plants; details: 96 h, 4 days after treatment, read-out: mortality in comparison with untreated controls
# Experimental: B.3 Southern Armyworm (Spodoptera eridania), 2nd Instar Larvae
# The active compounds were formulated by a Tecan liquid handler in 100% cyclohexanone as a 10,000-ppm solution supplied in tubes. The 10,000-ppm solution was serially diluted in 100% cyclohexanone to make interim solutions. These served as stock solutions for which final dilutions were made by the Tecan in 50% acetone:50% water (v/v) into 10 or 20 ml glass vials. A non-ionic surfactant (Kinetic@) was included in the solution at a volume of 0.01% (v/v). The vials were then inserted into an automated electrostatic sprayer equipped with an atomizing nozzle for application to plants/insects. Lima bean plants (variety Sieva) were grown 2 plants to a pot and selected for treatment at the 1st true leaf stage. Test solutions were sprayed onto the foliage by an auto-mated electrostatic plant sprayer equipped with an atomizing spray nozzle. The plants were dried in the sprayer fume hood and then removed from the sprayer. Each pot was placed into perforated plastic bags with a zip closure. Ten to 11 armyworm larvae were placed into the bag and the bags zipped closed. Test plants were maintained in a growth room at about 25° C. and about 20-40% relative humidity for 4 days, avoiding direct exposure to fluorescent light (14:10 light:dark photoperiod) to prevent trapping of heat inside the bags. Mortality and reduced feeding were assessed 4 days after treatment, compared to untreated control plants.
# [6] = 72 h, aphid mortality after 3 days, read-out: mortality in comparison with untreated controls
Compound,mortality at 2500 ppm [1],mortality at 2500 ppm [2],mortality at 2500 ppm [3],"mortality at 30 ppm ([3]; 30 ppm, comparative experiment C.3)","mortality at 90 ppm ([4]; 90 ppm, comparative experiment C.3)","mortality at 2500 ppm [4, 6]",mortality at 300 ppm [5],"mortality at 90 ppm ([1]; 90 ppm, comparative experiment C.1)",mortality at 30 ppm ([4]; comparative experiment C.1),"mortality at 80 ppm ([2]; 80 ppm, comparative experiment C.5, read-out: B.5, 80 ppm (mortality))",mortality at 90 ppm ([3]; comparative experiment C.5),"mortality at 2500 ppm ([4]; comparative experiment C.5, read-out: B.6, 2500 ppm (mortality))",mortality at 90 ppm [2],mortality at 90 ppm ([3]; comparative experiment C.4),mortality at 30 ppm ([4]; comparative experiment C.4)
CC(NC(=O)c1cc(C(F)(F)F)cc(C(F)(F)F)c1)c1nccnc1-n1cc(-c2cccnc2)nn1 (centres unmarked) [I-9],≥ 75%,≥ 75%,≥ 75%,100%,100%,≥ 75%,≥ 75%,–,–,–,–,–,–,–,–
"CC(NC(=O)c1cc(C(F)(F)F)cc(C(F)(F)F)c1)c1nccnc1-n1ncc(-c2ccccn2)n1 (centres unmarked) [I-14, N-[1-[3-[4-(2-pyridyl)triazol-2-yl]pyrazin-2-yl]ethyl]-3,5-bis(trifluoro-methyl)benzamide]",≥ 75%,≥ 75%,≥ 75%,–,–,≥ 75%,≥ 75%,100%,100%,–,–,–,–,–,–
"CC(NC(=O)c1cc(C(F)(F)F)cc(C(F)(F)F)c1)c1nccnc1-n1cc(S(C)(=O)=O)cn1 (centres unmarked) [I-17, N-[1-[3-(4-methylsulfonylpyrazol-1-yl)pyrazin-2-yl]ethyl]-3,5-bis(trifluoromethyl)benzamide]",≥ 75%,≥ 75%,≥ 75%,–,–,≥ 75%,≥ 75%,–,–,100%,100%,100%,–,–,–
CC(NC(=O)c1cc(C(F)(F)F)cc(C(F)(F)F)c1)c1nccnc1-n1cc(-c2ccncn2)cn1 (centres unmarked) [I-42],≥ 75%,≥ 75%,≥ 75%,–,–,≥ 75%,≥ 75%,–,–,–,–,–,100%,100%,100%
CC(NC(=O)c1cc(C(F)(F)F)cc(C(F)(F)F)c1)c1nccnc1-n1cc(-c2nccs2)cn1 (centres unmarked) [I-51],≥ 75%,≥ 75%,≥ 75%,–,–,≥ 75%,≥ 75%,–,–,–,–,–,100%,100%,100%
